From article PMC9805685, “Isolation, bioassay and 3D-QSAR analysis of 8-isopentenyl flavonoids from Epimedium sagittatum maxim. as PDE5A inhibitors” (Chinese Medicine, 2022)
Where “and” joins values, the source holds several entries; their conditions need not be identical. Identical values can stand only once. Like-named read-outs stand apart in the source and are kept apart here.

Key:
[1] = target: T1, PDE5A1 (Homo sapiens, UniProt O76074); assay: PDE5A1 inhibition assay, enzyme reaction with HPLC detection of cGMP; assay type: biochemical; details: 0.15 µg/mL PDE5A1, 7.5 µg/mL cGMP, 90 min at 35 ℃
Protocol: 50 μL analytes were injected and separated on the C18 5 μm column with a flow rate of 1 mL/min at 30 °C column temperature. The mobile phase consisted of methanol and 0.05 mol/L potassium dihydrogen phosphate (10:90, V/V).
All components for assay were diluted in assay buffer which contained 100 mM MgCl2 and 50 mM Tris–HCl (pH 8.0). The compounds were dissolved in DMSO and then further diluted to the desired concentration with assay buffer. 30 μL PDE5A1 solution and 30 μL compound solution were mixed at room temperature and incubated for 5 min, followed by addition of with 30 μL cGMP solution, and the reaction was carried out at 35 °C for 90 min. After the assay, each vial was incubated in 100 °C boiling water for 5 min to inactivate the PDE5A1 activity, and then was cooled to be detected with HPLC. No PDE5A1 was used as the positive control, and DMSO was used as the negative control. Percentage inhibition was calculated using the peak area of HPLC with the following formula.
For dose–response experiments, the PDE5A1 inhibitors were diluted to 7 concentrations series with fourfold gradient. Two individual operations were performed on different dates as the repetition.
For developing the screening method for PDE5A1 inhibitors, the in vitro enzyme reaction and HPLC detection were combined. […] The concentrations of enzyme and substrate are important parameters in the inhibitor screening assay.

[2] = target: T1, PDE5A1; assay: CoMSIA 3D-QSAR model prediction of PDE5A1 activity; details: EA minus PA
Protocol: (§1) All molecular modeling and calculations were performed by the Sybyl program package. The structures of all compounds were constructed using the Sketch Molecule module. Structural energy minimization was carried out using the standard Tripos molecular mechanics force field and Gasteiger-Huckle charge, with the convergence criterion set at 0.005 kcal/(Å·mol) and the max iterations for the minimization set to 10,000.
Although CoMSIA is similar to CoMFA, CoMSIA not only computes the steric and electrostatic fields, but also calculates additional hydrophobic, hydrogen-bond donor, and hydrogen-bond acceptor fields. CoMSIA descriptors were calculated with the same lattice box, grid spacing and probe atom as that used for the CoMFA calculations. In CoMSIA analysis, the five different descriptor fields are not totally independent from each other. Given that the size of dataset, we decided to use three of five fields as the descriptors.

[3] = tested on: cytoplasmic calcium in CCSMCs; assay: Fluorescent staining of calcium (Fluo-4AM) in CCSMCs; assay type: cell-based, rat; details: for fluorescence intensity of cytoplasmic calcium in CCSMCs: 10 uM, 30 min, Fluo-4 AM
Text: (§2) Male Sprague–Dawley (SD) rats (180–220 g) were purchased from Shanghai SLAC Laboratory Animal Co., Ltd. This experiment protocol was approved by the standardizing laboratory animal ethical review of Shanghai University of Traditional Chinese Medicine. After removal of the corpus spongiosum, subcutaneous tissue and deep fascia of penises of SD rats, the corpus cavernosum tissue was cut into small pieces of less than 2mm^3 and digested with 0.5% collagenase I and 20% fetal bovine serum (PFES) in DMEM for 4 h. The cell suspensions were collected by mesh filtration and centrifugation, and cultured in DMEM containing 20% PFES and 1 × antibiotics at 37 °C in a humidified atmosphere with 5% CO2. After 24 h culture, spindle CCSMCs attached to the culture dish. The medium was replaced with DMEM containing 10% PFES when CCSMCs reached 70% confluence.
CCSMCs were cultured in 6-well plate at a density of 100,000/well for 48 h. Then cells were stained by Fluo-4AM for 30 min prior to […] 1 ~ 3 exposure for 30 min in the presence or absence of 10 μM Rp-8-Br-cGMPS (the protein kinase G inhibitor). After PBS rinse, the cytosolic calcium was observed by fluorescence microscope.

[4] = target: T1, PDE5A1; assay: CoMFA 3D-QSAR model prediction of PDE5A1 activity; details: EA minus PA
Protocol: as §1
The 3D cubic lattice region was created automatically and the grid spacing was set at 1.7 Å in the x, y, and z directions. A sp^3 carbon atom with + 1 net charge was taken as the probe atom and steric and electrostatic interactions were calculated by using the Tripos force field. A cutoff of 30 kcal/mol was adopted in calculating energies. With standard options for scaling of variables, the regression analysis was carried out using partial least squares (PLS) method. The cross-validation with Leave-One-Out (LOO) option was carried out to obtain the optimum number of components (ONC).The final model (non-cross-validated conventional analysis) was developed with the optimum number of components. Region focusing is an advanced strategy that improves prediction ability of the initial built CoMFA model. CoMFA region focusing method refines a model by increasing the weights of the lattice points. StDev × coefficient values were used as weights.

[5] = tested on: cGMP level of CCSMCs; assay: cGMP assay in CCSMCs by ELISA; assay type: cell-based, rat; details: 10 μM, 48 h
Text: as §2
CCSMCs were seeded in 6-well plate at a density of 100,000/well for 24 h, and then were treated with 10 μM 1 ~ 3 for 48 h. The cells were lysed by 0.1 M hydrochloric acid with 200 μl per well for 20 min incubation, then the supernatant was collected and determined the cGMP content by ELISA.

[6] = target: T1, PDE5A1; details: converted from literature IC50; cited from earlier work

IC50 ([1]; read-out: PDE5A1 (IC50 ± SD))	CoMSIA residual [2]	CoMFA residual [4]	SMILES	pIC50 (-logIC50), experimental activity (EA) [6]	other results
682 µM	0.037	–	COc1ccc(-c2oc3c(CC=C(C)C)c(OC4OC(CO)C(O)C(O)C4O)cc(O)c3c(=O)c2OC2OC(C)C(O)C(O)C2OC2OC(C)C(O)C(O)C2O)cc1 (centres unmarked) [Compound 6, epimedin C]	–	–
3.23 µM	–	0.015	COc1ccc(-c2oc3c(CC=C(C)C)c(O)cc(O)c3c(=O)c2OC2OC(C)C(O)C(O)C2OC2OC(C)C(O)C(O)C2O)cc1 (centres unmarked) [Compound 2, 2-O"-rhamnosylicaridide II]	–	fluorescence intensity of cytoplasmic calcium in CCSMCs [3]: decrease cytoplasmic Ca^2+; cGMP level of CCSMCs [5]: increase cGMP level
–	0.000	–	COc1ccc(-c2oc3c(CC=C(C)C)c(OCCO)cc(O)c3c(=O)c2OC2OC(C)C(O)C(O)C2O)cc1 (centres unmarked) [Compound 8]	6.444	–
–	0.058	0.105	COc1ccc(-c2oc3c(CC=C(C)C)c(O)cc(O)c3c(=O)c2O)cc1 [Compound 7]	–	–
5.47 µM and 5.48 µM	0.013	–	COc1ccc(-c2oc3c(CC=C(C)C)c(O)cc(O)c3c(=O)c2O[C@@H]2O[C@@H](C)[C@H](O)[C@@H](O)[C@H]2O)cc1 [Compound 3, baohuoside I]	–	fluorescence intensity of cytoplasmic calcium in CCSMCs [3]: decrease cytoplasmic Ca^2+; cGMP level of CCSMCs [5]: increase cGMP level
–	0.025	0.06	COc1cccc(/C=C/C(=O)c2c3c(c(OC)c4c2OCO4)CN(C)CC3)c1 [Compound 14]	5.208	–
–	–	–	Nc1nc2c(nc(Br)n2[C@@H]2O[C@@H]3COP(O)(=S)O[C@H]3[C@H]2O)c(=O)[nH]1 (some centres unmarked) [Rp-8-Br-cGMPS, reference compound]	–	effect on calcium down-regulation by 1 ~ 3 in CCSMCs ([3]; 10 μM Rp-8-Br-cGMPS together with 1 ~ 3, 30 min): blocked the down-regulated calcium levels
–	–	0.034	COc1ccc(-c2oc3c(CC=C(C)C)c(O[C@@H]4O[C@H](CO)[C@@H](O)[C@H](O)[C@H]4O)cc(O)c3c(=O)c2O[C@@H]2O[C@@H](C)[C@H](O)[C@@H](O)[C@H]2O)cc1 [Compound 1, icariin]	–	fluorescence intensity of cytoplasmic calcium in CCSMCs [3]: decrease cytoplasmic Ca^2+; IC50 ([1]; PDE5A1 (IC50 ± SD)): 8.28 µM and 8.27 µM; cGMP level of CCSMCs [5]: increase cGMP level
358 ± 34.2 µM	–	0.032	COc1ccc(-c2oc3c(CC=C(C)C)c(OC4OC(CO)C(O)C(O)C4O)cc(O)c3c(=O)c2OC2OC(C)C(O)C(O)C2OC2OCC(O)C(O)C2O)cc1 (centres unmarked) [Compound 5, epimedin B]	–	–
–	–	–	COc1ccc(/C=C/C(=O)c2c(OCc3ccccc3)cc(OC)c(OC)c2OC)cc1OC [Compound 12]	5.229	–
–	0.001	–	CCCOc1ccccc1-c1nc2n[nH]nc2c(=O)[nH]1 [Compound 17]	–	–
409 ± 31.4 µM	–	–	COc1ccc(-c2oc3c(CC=C(C)C)c(OC4OC(CO)C(O)C(O)C4O)cc(O)c3c(=O)c2OC2OC(C)C(O)C(O)C2OC2OC(CO)C(O)C(O)C2O)cc1 (centres unmarked) [Compound 4, epimedin A]	–	–
–	–	–	COc1ccc(OC)c(C(=O)/C=C/c2ccc(OC)c(OC)c2)c1 [Compound 13]	5.155	–
–	0.562	0.296	COc1ccc(C(=O)/C=C\c2cc(OC)c(OC)cc2OC)c(OC)c1 [Compound 10]	5.745	–

SMILES	IC50 ([1]; read-out: PDE5A1 (IC50 ± SD))	CoMSIA residual [2]	CoMFA residual [4]	pIC50 (-logIC50), experimental activity (EA) [6]	other results
CCCc1nn(C)c2c(=O)[nH]c(-c3cc(S(=O)(=O)N4CCN(C)CC4)ccc3OCC)nc12 [Sildenafil, sildenafil]	–	–	0.068	–	–
